Data reported in patent US7981920B2, “Addition salts of angiotensin-converting enzyme inhibitors with no donor acids, a process for their preparation and pharmaceutical compositions containing them” (Les Laboratoires Servier, priority 2007, dated 2011).

Key:
[1] = molecular target: T1, Angiotensin 1-Converting Enzyme (Rattus norvegicus, UniProt P47820); assay: Activity inhibiting angiotensin 1-converting enzyme in vivo: hypertensive response to angiotensin I in anaesthetised rats; conditions: dose of 0.1 mg/kg, given 60 minutes prior to anaesthesia, angiotensin I i.v. 1.5 μg/kg
T1 construct: from tissue; host or cells: whole living rat (in vivo; endogenous enzyme)
T1 sequence (P47820 36-1313): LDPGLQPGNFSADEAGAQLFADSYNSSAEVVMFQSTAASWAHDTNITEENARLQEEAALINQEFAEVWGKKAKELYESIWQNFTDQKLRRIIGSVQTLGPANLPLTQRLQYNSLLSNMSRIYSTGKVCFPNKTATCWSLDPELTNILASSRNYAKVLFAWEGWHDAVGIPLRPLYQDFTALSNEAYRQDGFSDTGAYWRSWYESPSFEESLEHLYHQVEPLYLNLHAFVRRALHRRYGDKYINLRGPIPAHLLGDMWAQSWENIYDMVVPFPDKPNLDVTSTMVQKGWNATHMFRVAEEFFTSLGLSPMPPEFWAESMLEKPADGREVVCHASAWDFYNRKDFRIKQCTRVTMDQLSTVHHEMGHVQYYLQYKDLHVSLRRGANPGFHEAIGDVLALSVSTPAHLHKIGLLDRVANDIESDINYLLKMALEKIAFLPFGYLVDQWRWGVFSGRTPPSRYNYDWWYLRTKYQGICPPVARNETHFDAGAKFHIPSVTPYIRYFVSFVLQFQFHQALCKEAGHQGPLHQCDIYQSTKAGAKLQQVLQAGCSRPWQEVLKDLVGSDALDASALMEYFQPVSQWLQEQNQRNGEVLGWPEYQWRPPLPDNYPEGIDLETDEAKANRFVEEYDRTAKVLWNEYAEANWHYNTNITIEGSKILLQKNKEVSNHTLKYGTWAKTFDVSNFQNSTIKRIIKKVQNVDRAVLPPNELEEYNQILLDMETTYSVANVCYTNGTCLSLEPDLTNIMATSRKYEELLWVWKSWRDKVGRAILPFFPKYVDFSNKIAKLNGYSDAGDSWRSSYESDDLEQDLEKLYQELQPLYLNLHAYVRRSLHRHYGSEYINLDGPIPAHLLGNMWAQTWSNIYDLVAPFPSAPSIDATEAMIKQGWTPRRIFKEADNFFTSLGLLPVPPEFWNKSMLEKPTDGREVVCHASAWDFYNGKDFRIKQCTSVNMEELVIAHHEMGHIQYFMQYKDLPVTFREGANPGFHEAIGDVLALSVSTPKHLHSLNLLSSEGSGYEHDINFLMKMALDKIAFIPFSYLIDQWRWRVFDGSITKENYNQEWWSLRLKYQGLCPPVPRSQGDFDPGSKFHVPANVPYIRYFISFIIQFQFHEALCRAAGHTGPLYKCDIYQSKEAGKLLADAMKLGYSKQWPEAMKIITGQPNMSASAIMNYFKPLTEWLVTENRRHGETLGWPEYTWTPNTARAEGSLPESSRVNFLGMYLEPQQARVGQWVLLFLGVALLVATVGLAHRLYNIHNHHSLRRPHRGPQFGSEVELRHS
Description: Rats are anaesthetised with pentobarbital and placed under artificial respiration, and the average arterial pressure is measured by a catheter that has been placed in the femoral artery and is connected to a pressure sensor. The vagus nerves are divided into sections and mecamilamine (sympathetic ganglion blocker) is injected i.v. at 1.5 mg/kg. After stabilisation, angiotensin I is injected i.v. at 1.5 μg/kg.
The maximum hypertensive response to angiotensin I is measured in rats that, 60 minutes prior to anaesthesia, have received by the oral route either Senegal gum alone (control group), or the compound under test in Senegal gum. The inhibitory effect is determined as a percentage from the response to angiotensin I compared with the control group.

[2] = test system: Aorta rings without endothelium; assay: NO donor activity in vitro: relaxation of noradrenaline-contracted aorta rings; format: cell-based; conditions: stable contraction induced by noradrenaline (0.1-0.3 μM), read-out: IC50 (dose that inhibits the maximum effect by 50%), relaxing effect
Description: Aorta rings without endothelium are used. After a first contraction induced by 60 mM KCl to characterise the sensitivity of the ring, and washing, a stable contraction is induced by noradrenaline (0.1-0.3 μM) in the presence or absence of a guanylate cyclase inhibitor, ODQ (10 μM). A cumulative concentration series is applied and the activity of the product under test is calculated by an IC50 (dose that inhibits the maximum effect by 50%).

Substance | angiotensin I inhibition (inhibition of maximum hypertensive response to angiotensin I compared with control group) [1] | IC50 [2]
(2S)-2-[(3-{[5-Oxido-4-(phenylsulphonyl)-1,2,5-oxadiazol-3-yl]-oxy}-propionyl)-amino]-succinic Acid-(2S,3aS,7aS)-1-[(2S)-2-{[(1S)-1-(ethoxycarbonyl)-butyl]-amino}-propionyl]-octahydro-1H-indole-2-carboxylic Acid (1:1) [Example 1] | 85% | 48 nM
(2S,3aS,7aS)-1-[(2S)-2-{[(1S)-1-(Ethoxycarbonyl)-butyl]-amino}-propionyl]-octahydro-1H-indole-2-carboxylic acid-{[(3-{[5-oxido-4-(phenylsulphonyl)-1,2,5-oxadiazol-3-yl]-oxy}-propionyl)-amino]-methyl}-phosphonic acid (1:1) [Example 7] | 88% | 47 nM
